Numbers after ± are expanded uncertainties.
Assays:
[1] = Molar enthalpy of transition or fusion; conditions: Crystal; DSC
[2] = Crystal; DTA

Molar enthalpy of transition or fusion [1]: 5.4 ± 0.359 kcal/mol
Normal melting temperature [2]: 112.2 ± 1.1 °C
Compound: c1ccc2c(c1)-c1ccccc1-2 [biphenylene]

From the NIST ThermoML archive (doi:10.1021/je800300x)
